# Source: patent US8344009B2, “Substituted phenoxy thiazolidinediones as estrogen related receptor-á modulators” (priority 2007, dated 2013)
# Marks after values point to notes of the source that are not given here.
# Tests used:
# [1] = system: ZDF fa/fa male rats; test: ZDF diabetic rat model (3, 10, 30 mpk); type: in vivo; conditions: for % Fat Day 18: Q-NMR; for FFA (NEFA) / Glucose / Triglycerides / cholesterol / ketone: 26 day ZDF rat efficacy study; for circulating glucose levels upon intraperitoneal delivery of insulin (ITT): FIG. 4, ITT at day 11
# Source text: The ZDF rat is a monogenic model of Type II Diabetes. […] This mutation results in a hyperphagic phenotype and the rodent develops obesity, hyperlipidemia, fasting hyperglycemia and Type II Diabetes. The model at 7 weeks of age develops hyperinsulinemia followed by a loss of glucose stimulated insulin secretion due to beta islet failure. Fifty ZDF fa/fa male rats were received at four weeks of age and allowed to acclimate for one week. At five week of age the animals were single housed in cages in a temperature-controlled room with 12-hour light/dark cycle. They were allowed ad libitum access to water and food and throughout the study were maintained on a Purina 5008 diet. Animals were sorted into five groups based first on glucose levels and then at body weight (average fed glucose levels and body weight at 7 weeks of age were 488 mg/dL and 282 grams, respectively). Animals were given Compound 1 orally once a day for 25 days in the morning at 3 mpk, 10 mpk and 30 mpk. A separate group was dosed daily with vehicle. The vehicle used for Compound 1 in this study consisted of 15% VE-TEPG, 30% PEG400 and 55% water. Food intake, body weight, glucose, insulin, triglyceride and free fatty acid levels were monitored throughout the study using blood collected from the tail vein. At day 11 of the study an insulin tolerance test (ITT) was done to evaluate peripheral insulin sensitivity. On day 19 an OGTT was done to assess glucose disposal rates. […] On the day of the necropsy the rats were bled through the orbital sinus under CO2:O2 anesthesia. Animals were sacrificed and several tissues were collected, frozen in liquid nitrogen and stored at −80° C. Serum plasma samples were prepared by centrifugation in EDTA containing tubes, transferred into 96 well plates and stored at −80° C.
# [2] = system: AKR/J mice; test: AKR/J mouse obesity model; type: in vivo; conditions: for 3-hydroxy-butyrate / % body fat / FFA (Free Fatty Acids): NEFA (Non Esterified Fatty Acids) / Glucose / Lean Mass / Triglyceride / Insulin / Total body fat: five days; for Insulin: plasma; for Total body fat: high fat diet, Q-NMR
# Protocol: AKR/J mice are a polygenic model of diet-induced obesity characterized by hypertriglyceridemia and hyperinsulinemia. AKR/J mice were received at seven weeks of age and allowed to acclimate for one week and then placed on high fat diet (45% of the calories from fat) for five weeks. Animals were treated for five days with 3 mpk (mg/kg) and 30 mpk Compound 1 (Example 1) given orally twice a day. Food intake was measured at day four. On day five, prior to necropsies, body weight was recorded and body composition was measured by Q-NMR (Quantitative Nuclear Magnetic Resonance). Animals were anesthetized with carbon dioxide and blood was collected by cardiac puncture. Plasma was obtained by centrifugation and used to determine circulating insulin levels and clinical chemistries, including liver functions tests, using commercially available kits as per manufacturers instructions. Several tissues were harvested, frozen in liquid nitrogen and stored at −80° C. for further use.
compound,measurement,setting,value
"COc1cc(/C=C2\SC(=O)NC2=O)ccc1Oc1ccc(C#N)cc1C(F)(F)F [Compound 1, 4-[4-(2,4-Dioxo-thiazolidin-5-ylidenemethyl)-2-methoxy-phenoxy]-3-trifluoromethyl-benzonitrile]",Body weight change (0-25 day),[1]; 3 mpk orally once a day,62.7*
same,Total food intake (0-25 days),[1]; 3 mpk orally once a day,727
same,% Fat Day 18,[1]; 3 mpk orally once a day,58** %
same,FFA (NEFA),[1]; 3 mpk,0.65 mM
same,Glucose,[1]; 3 mpk,584.88 mg/dL
same,Triglycerides,[1]; 3 mpk,596.33 mg/dL
same,cholesterol,[1]; 3 mpk,145.70 mg/dL
same,ketone,[1]; 3 mpk,183.97 µmol/L
same,Body weight change (0-25 day),[1]; 10 mpk orally once a day,49.3
same,Total food intake (0-25 days),[1]; 10 mpk orally once a day,720
same,% Fat Day 18,[1]; 10 mpk orally once a day,59** %
same,FFA (NEFA),[1]; 10 mpk,0.54 mM
same,Glucose,[1]; 10 mpk,549.63 mg/dL
same,Triglycerides,[1]; 10 mpk,402.39** mg/dL
same,cholesterol,[1]; 10 mpk,156.08* mg/dL
same,ketone,[1]; 10 mpk,144.61 µmol/L
same,Body weight change (0-25 day),[1]; 30 mpk orally once a day,65.3*
same,Total food intake (0-25 days),[1]; 30 mpk orally once a day,703**
same,% Fat Day 18,[1]; 30 mpk orally once a day,60*** %
same,FFA (NEFA),[1]; 30 mpk,0.48 mM
same,Glucose,[1]; 30 mpk,545.64 mg/dL
same,Triglycerides,[1]; 30 mpk,320.94*** mg/dL
same,cholesterol,[1]; 30 mpk,169.92** mg/dL
same,ketone,[1]; 30 mpk,134.84* umol/L
same,fed free fatty acid levels,"[1]; FIG. 3, versus vehicle control",reduces
same,fed triglyceride levels,"[1]; FIG. 3, versus vehicle control",reduces
same,circulating glucose levels upon intraperitoneal delivery of insulin (ITT),[1],reduction in circulating glucose levels
same,circulating glucose levels upon intraperitoneal delivery of insulin (ITT),[1]; listed as compound 1,normalizing glucose levels at the 30 minute time point
same,AUC of glucose during the ITT,"[1]; FIG. 4 right panel, 0-60 and 0-120 minute time points",reduction of AUC of glucose
same,fasting glucose levels,"[1]; FIG. 5, after a 16 hour fast",reduction in fasting glucose levels
same,plasma glucose following an oral glucose tolerance test,"[1]; FIG. 6, OGTT day 19",lowering fasting plasma glucose
same,insulin release levels following an oral glucose tolerance test,[1]; FIG. 7,increase on insulin release levels
same,Hb1Ac levels,"[1]; FIG. 8, after 26 days treatment",reduction in Hb1Ac levels
same,fed glucose levels,"[1]; FIG. 8, first three weeks of the study",lowering of fed glucose levels
same,fed plasma insulin levels,[1]; FIG. 9,increasing fed plasma insulin levels
same,pancreatic insulin content,[1]; FIG. 9,increasing
same,3-hydroxy-butyrate,[2]; 3 mpk orally twice a day,8.3 ± 0.9 ×10−5
same,% body fat,[2]; 3 mpk orally twice a day,12.7 ± 0.8%
same,FFA (Free Fatty Acids): NEFA (Non Esterified Fatty Acids),[2]; 3 mpk orally twice a day,0.59 ± 0.07 mM
same,Glucose,[2]; 3 mpk orally twice a day,165.0 ± 5.0 mg/dL
same,Lean Mass,[2]; 3 mpk orally twice a day,20.2 ± 0.3 g
same,Triglyceride,[2]; 3 mpk orally twice a day,160.0 ± 18.9 mg/dL
same,Insulin,[2]; 3 mpk orally twice a day,9.6 ± 1.5 ng/mL
same,3-hydroxy-butyrate,[2]; 30 mpk orally twice a day,12.6 ± 1.8 ×10−5
same,% body fat,[2]; 30 mpk orally twice a day,9.3 ± 0.6 %
same,FFA (Free Fatty Acids): NEFA (Non Esterified Fatty Acids),[2]; 30 mpk orally twice a day,0.41 ± 0.05 mM
same,Glucose,[2]; 30 mpk orally twice a day,185.0 ± 10.01 mg/dL
same,Lean Mass,[2]; 30 mpk orally twice a day,20.0 ± 0.2 g
same,Triglyceride,[2]; 30 mpk orally twice a day,80.0 ± 9.8 mg/dL
same,Insulin,[2]; 30 mpk orally twice a day,2.8 ± 0.8 ng/mL
same,Total body fat,"[2]; AKR/J mice, 3 mpk orally twice a day",3.87 ± 0.29 g
same,Total body fat,"[2]; AKR/J mice, 30 mpk orally twice a day",2.7 ± 0.2 g
same,body weight,"[2]; FIG. 1, AKR/J mice, 3 and 30 mpk twice a day, day five",reduces body weight
same,food intake,"[2]; FIG. 1, AKR/J mice, 3 and 30 mpk twice a day, day four",reduces food intake
